Consider 7 compounds from ChEMBL document CHEMBL5244211, “Current anti-diabetic agents and their molecular targets: A review” (Eur J Med Chem, 2018).

Each structure is given as a SMILES string.

In data set [1] the target is T1, Tyrosine-protein phosphatase non-receptor type 1 (Homo sapiens, UniProt P18031).
T1 sequence (P18031 whole entry): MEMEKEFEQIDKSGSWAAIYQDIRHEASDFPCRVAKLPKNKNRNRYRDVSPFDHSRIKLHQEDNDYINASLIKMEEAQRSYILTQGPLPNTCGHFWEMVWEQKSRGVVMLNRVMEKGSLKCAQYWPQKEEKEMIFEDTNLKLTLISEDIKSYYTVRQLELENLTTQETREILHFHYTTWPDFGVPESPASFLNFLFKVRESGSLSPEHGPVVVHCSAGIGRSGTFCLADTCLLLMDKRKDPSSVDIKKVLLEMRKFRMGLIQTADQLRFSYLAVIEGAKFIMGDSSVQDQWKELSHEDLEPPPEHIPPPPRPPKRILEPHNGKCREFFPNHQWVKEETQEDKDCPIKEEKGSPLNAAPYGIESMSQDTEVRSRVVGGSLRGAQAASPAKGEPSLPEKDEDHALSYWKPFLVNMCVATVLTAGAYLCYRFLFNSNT
Kind of data set: Inhibition of human GST-tagged PTP1B expressed in Escherichia coli using pNPP as substrate by spectroscopic analysis.

Data set [2] is described as follows: Clearance in Wistar rat at 1 mg/kg,iv. The data set is classed as ADME, organism-based. As to conditions: in vivo.
The target in data set [3] is Free fatty acid receptor 1 (Rattus norvegicus) (UniProt Q8K3T4). As to the kind of experiment: In vivo agonist activity at FFAR1 in streptozotocin (STZ)-induced Wistar rat assessed as reduction in blood glucose AUC at 1 mg/kg,iv and measured upto 120 mins by OGTT analysis. The data set is classed as functional, organism-based. More on the design: scale not given: the % may be the effect or the level left.
Free fatty acid receptor 1 (Rattus norvegicus), sequence (Q8K3T4 whole entry): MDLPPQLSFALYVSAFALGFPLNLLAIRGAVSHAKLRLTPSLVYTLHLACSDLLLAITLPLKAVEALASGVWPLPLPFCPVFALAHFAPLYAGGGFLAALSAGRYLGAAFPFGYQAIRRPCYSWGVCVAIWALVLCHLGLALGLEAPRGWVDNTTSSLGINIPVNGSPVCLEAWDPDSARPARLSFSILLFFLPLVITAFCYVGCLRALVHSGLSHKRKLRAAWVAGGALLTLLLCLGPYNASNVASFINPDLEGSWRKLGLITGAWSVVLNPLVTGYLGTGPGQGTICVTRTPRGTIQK

The target is the same in data set [4]. As to the kind of experiment: In vivo agonist activity at FFAR1 in iv dosed streptozotocin (STZ)-induced Wistar rat model assessed as reduction in blood glucose AUC and measured upto 120 mins by OGTT analysis. The data set is classed as functional, organism-based.
Data set [5] can be described thus: Oral bioavailability in Wistar rat at 3 mg/kg. As to conditions: in vivo. Format: ADME, organism-based.
Data set [6] has as its target T2, Free fatty acid receptor 1 (Homo sapiens, UniProt O14842). Kind of data set: Agonist activity at FFAR1 (unknown origin) incubated for 16 hrs by Promoter-luciferase assay.
The target of data set [7] is T3, Fructose-1,6-bisphosphatase 1 (Rattus norvegicus) (UniProt P19112).
T3 sequence (whole entry): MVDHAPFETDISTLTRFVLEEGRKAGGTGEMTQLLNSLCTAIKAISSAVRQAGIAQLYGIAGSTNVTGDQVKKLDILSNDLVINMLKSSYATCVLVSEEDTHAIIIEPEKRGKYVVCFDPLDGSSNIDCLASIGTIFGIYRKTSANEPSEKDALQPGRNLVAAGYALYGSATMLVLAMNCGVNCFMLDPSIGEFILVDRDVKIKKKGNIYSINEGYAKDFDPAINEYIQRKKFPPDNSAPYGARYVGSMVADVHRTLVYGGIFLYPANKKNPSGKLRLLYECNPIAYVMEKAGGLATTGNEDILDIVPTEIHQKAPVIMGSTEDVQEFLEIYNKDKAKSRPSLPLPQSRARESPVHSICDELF
Kind of data set: Inhibition of FBPase in rat Primary hepatocyte assessed as reduction in glucose production at 160 uM. The data set is classed as cell-based.

Data set [8] has as its target T4, Fructose-1,6-bisphosphatase 1 (Rattus norvegicus, UniProt P19112).
T4 sequence (P19112 whole entry): T3 sequence (whole entry)
Kind of data set: Inhibition of FBPase in rat Primary hepatocyte assessed as reduction in glucose production. Format: cell-based.

In data set [9] the target is T2, Free fatty acid receptor 1. Kind of data set: Agonist activity at human GPR40 expressed in HEK293 cells incubated for 1 hrs by calcium flux assay. Format: cell-based.
Data set [10] has as its target Glucagon receptor (Homo sapiens, UniProt P47871). Kind of data set: Inhibition of human GCGR receptor.
The target in data set [11] is Glucagon receptor (Rattus norvegicus, UniProt P30082). As to the kind of experiment: Displacement of [125I]-glucagon from GCGR in Sprague-Dawley rat liver assessed as decrease in glucagon-stimulated CAMP production incubated for 45 mins by scintillation counter analysis. The data set is classed as tissue-based. In general terms: Displacement assays read how much labelled ligand stays bound in the presence of the test substance.
Glucagon receptor (Rattus norvegicus, UniProt P30082), sequence (P30082 whole entry): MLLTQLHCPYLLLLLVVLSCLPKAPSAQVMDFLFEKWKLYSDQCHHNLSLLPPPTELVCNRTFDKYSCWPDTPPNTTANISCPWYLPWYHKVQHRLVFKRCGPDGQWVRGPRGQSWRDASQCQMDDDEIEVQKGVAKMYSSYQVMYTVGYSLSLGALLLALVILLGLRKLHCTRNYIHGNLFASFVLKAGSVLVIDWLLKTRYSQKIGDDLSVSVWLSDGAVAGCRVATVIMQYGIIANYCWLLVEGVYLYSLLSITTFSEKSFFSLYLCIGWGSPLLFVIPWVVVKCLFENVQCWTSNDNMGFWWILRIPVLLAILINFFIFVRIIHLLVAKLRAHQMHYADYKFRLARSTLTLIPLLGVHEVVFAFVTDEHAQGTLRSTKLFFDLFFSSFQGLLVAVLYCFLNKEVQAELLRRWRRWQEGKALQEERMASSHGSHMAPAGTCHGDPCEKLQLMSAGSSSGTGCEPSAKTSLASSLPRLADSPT

For data set [12], the target named is T5, Free fatty acid receptor 4 (Homo sapiens, UniProt Q5NUL3).
T5 sequence (Q5NUL3 whole entry): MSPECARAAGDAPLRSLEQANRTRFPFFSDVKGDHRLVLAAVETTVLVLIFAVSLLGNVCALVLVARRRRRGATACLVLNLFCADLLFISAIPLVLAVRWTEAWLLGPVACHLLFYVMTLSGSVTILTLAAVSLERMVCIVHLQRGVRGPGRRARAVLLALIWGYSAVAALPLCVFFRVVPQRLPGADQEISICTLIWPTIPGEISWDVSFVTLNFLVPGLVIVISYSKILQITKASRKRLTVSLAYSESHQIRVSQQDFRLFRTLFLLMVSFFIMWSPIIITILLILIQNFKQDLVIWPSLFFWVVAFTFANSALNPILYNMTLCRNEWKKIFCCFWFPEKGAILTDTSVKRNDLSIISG
Kind of data set: Agonist activity at FFA4 (unknown origin) expressed in CHO-K1 cells by BRET assay. Format: cell-based. (Bioluminescence resonance energy transfer reports proximity on the nanometre scale.)

T2 sequence (O14842 whole entry): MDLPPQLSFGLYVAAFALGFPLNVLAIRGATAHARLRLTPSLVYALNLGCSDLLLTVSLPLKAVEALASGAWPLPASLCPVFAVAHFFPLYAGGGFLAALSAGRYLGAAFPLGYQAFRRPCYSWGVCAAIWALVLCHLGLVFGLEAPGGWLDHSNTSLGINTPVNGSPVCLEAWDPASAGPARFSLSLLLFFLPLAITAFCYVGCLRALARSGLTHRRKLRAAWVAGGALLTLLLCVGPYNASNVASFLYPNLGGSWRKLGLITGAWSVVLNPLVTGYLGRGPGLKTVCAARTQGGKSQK
Glucagon receptor (Homo sapiens, UniProt P47871), sequence (P47871 whole entry): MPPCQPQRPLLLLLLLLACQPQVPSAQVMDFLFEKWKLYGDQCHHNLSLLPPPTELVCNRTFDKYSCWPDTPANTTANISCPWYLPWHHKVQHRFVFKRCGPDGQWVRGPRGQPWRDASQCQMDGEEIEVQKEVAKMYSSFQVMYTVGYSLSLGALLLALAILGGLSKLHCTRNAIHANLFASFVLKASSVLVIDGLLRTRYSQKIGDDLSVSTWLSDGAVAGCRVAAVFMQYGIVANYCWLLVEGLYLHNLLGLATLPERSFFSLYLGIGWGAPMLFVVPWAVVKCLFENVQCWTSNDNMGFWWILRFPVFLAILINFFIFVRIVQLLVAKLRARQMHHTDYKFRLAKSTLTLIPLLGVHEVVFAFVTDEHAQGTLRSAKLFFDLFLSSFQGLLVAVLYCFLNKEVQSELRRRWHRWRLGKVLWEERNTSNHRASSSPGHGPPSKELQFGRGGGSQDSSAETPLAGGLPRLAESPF

`COc1cc(C(=O)c2c(CBr)cc(OC)c(OC)c2Br)c(Br)c(Br)c1OC`: the IC50 (usually the concentration at which inhibition is half-maximal) in data set [1] was 2070 nM.
For `CC#CC(CC(=O)O)c1ccc(OCc2cccc(CN3CCc4oc(C5CC5)nc4C3)c2)cc1` (configuration not stated), the clearance (commonly the rate of elimination divided by the concentration) in [2] was 0.27 mL/min/kg. In addition, in [3], the Activity is 46%. Besides, the ED50 (in general, the midpoint of the dose-response relation) in [4] amounted to 0.09 mg/kg. The bioavailability (commonly dose-corrected exposure relative to a reference, in per cent) in [5] is 45%. The EC50 (in general, the concentration giving half of the maximal effect) in [6] was 50 nM.
Take `Cc1ccc(-c2nnc(-c3cccc(NC(=O)CCCCc4nnn[nH]4)c3)o2)cc1`: the inhibition – broadly, the share of the control response that was lost under treatment – in data set [7] came to 42%. Further, the IC50 in data set [8] is 167000 nM.
Regarding `COc1ccc(F)c(-c2ncc(COc3ccc([C@@H](CC(=O)O)C4CC4)cc3)nc2OCCC(F)(F)F)c1`, the EC50 in data set [9] was 6 nM.
In the case of `Cc1cc(O[C@@H](CCC(F)(F)F)c2ccc(C(=O)NCCC(=O)O)cc2)cc(C)c1-c1ccc(C(C)(C)C)cc1` [ADOMEGLIVANT], the affinity on Glucagon receptor [10], expressed as Ki, was 6.6 nM.
Take `CCCc1c(C(C)C)cc(C(C)C)c([C@@H](C)O)c1-c1ccc(F)cc1`: the concentration for half-maximal inhibition (IC50) on Glucagon receptor [11] amounted to 110 nM.
Compound `O=C(O)CCCc1ccc(OCC2=C(c3ccc(C4CC4)cc3)CCCC2)cc1` showed an EC50 in data set [12] of 50 nM.
